The target of the experiment is SARS-CoV-2 Main Protease (SARS-CoV-2) (UniProt P0DTD1).

Values joined by “and” are separate entries in the source; they are usually repeats but may differ in a detail not shown here. Equal values may be shown once. A value given as a limit tells only on which side of the number the result lay.

By IC50 is commonly meant the point on the concentration scale where inhibition reaches its midpoint. Low readings indicate inhibition by little substance, high ones a need for much substance. In turn, `COCCN1CCc2ccc(Cl)cc2C1C(=O)Nc1cncc2ccccc12` (centres undefined) gave a half-inhibitory concentration (IC50) of 1.88 µM. This lies in the single-digit micromolar range.

In turn, `Nc1nn(C(=O)Cc2cccc(Cl)c2)c2ccc(F)cc12` yielded a concentration for half-maximal inhibition (IC50) of more than 99.5 µM.

Regarding `CC(C)(C)c1ccc(N(C(=O)c2cnon2)C(C(=O)NCCc2cccc(F)c2)c2cccnc2)cc1` (centres undefined), the IC50 worked out at 8.41 µM.

Molecule `O=C(Nc1cncc2ccccc12)N1CCOc2ccc(Cl)cc21` displayed a 50% inhibitory concentration (IC50) of 11.4 µM. This IC50 and that of the molecule before are within 1.5-fold of each other.

Regarding `CC(C)(C)c1ccc(-c2nnc(Sc3cnc([N+](=O)[O-])s3)o2)cc1`, the IC50 was 7.29 µM and 2.38 µM.

For the molecule `O=C1CC2(CCOc3ccc(Cl)cc32)CN1c1cncc2ccccc12` (centres undefined), the IC50 came out at 6.74 µM.

As for `O=C(NNc1nc2cccnc2s1)c1ccc2ccncc2c1`, the IC50 was more than 99.5 µM.

With `Cc1c(Cl)cc(S(=O)(=O)N2CC=C(c3c[nH]c4ncccc34)CC2)cc1[N+](=O)[O-]`, the IC50 was more than 99.5 µM.

Turning to `O=C(Nc1cncc2ccccc12)C1CN(S(=O)(=O)N2CCOCC2)Cc2ccc(Cl)cc21` (centres undefined), the 50% inhibitory concentration (IC50) worked out at 0.138 µM.

Molecule `O=C(Nc1cncc2ccccc12)C1CN(C(=O)C2CC2)Cc2ccc(Cl)cc21` (centres undefined) showed a concentration for half-maximal inhibition (IC50) of 0.487 µM.

The molecule `O=C(Cc1cc(Cl)cc(Nc2cccc(-c3ccccc3)c2)c1)Nc1cncc2ccccc12` showed an IC50 of 5.85 µM.

The molecule `O=C(Cc1cc(Cl)cc(Nc2ccc(I)cn2)c1)Nc1cncc2ccccc12` displayed an IC50 of 2.21 µM. Compared with the last molecule, the IC50 is about 2.6-fold lower.

For `O=C(NCc1ccc2c(c1)OCO2)c1nc(S(=O)(=O)Cc2ccccc2)ncc1Cl`, the IC50 was found to be 1.4 µM. This IC50 lies about 1.6-fold lower than the previous one.

`Cn1nnnc1C1=CCN(C(=O)CC2(C(=O)Nc3cncc4ccccc34)CCOc3ccc(Cl)cc32)CC1` (centres undefined) came in with an IC50 of 9.18 µM. Against the preceding molecule, the IC50 is about 6.6-fold higher.

In the case of `Cc1ccncc1NC(=O)Cc1cc(C#N)cc(OC2CC(=O)N2)c1` (centres undefined), the IC50 stood at 11.6 µM.

`CCC1(C(=O)Nc2cncc3ccccc23)CNC(=O)c2ccc(Cl)cc21` (centres undefined) registered an IC50 of 1.18 µM.

In the case of `COc1c(Cl)cccc1Nc1cc(Cl)cc(CC(=O)Nc2cncc3ccccc23)c1`, the half-inhibitory concentration (IC50) amounted to 1.68 µM. This IC50 and that of the molecule before are within 1.5-fold of each other.

As for `O=C(Cc1cc(Cl)cc(Nc2cccnc2Br)c1)Nc1cncc2ccccc12`, the IC50 came to 2.08 µM. This IC50 and that of the molecule before are within 1.5-fold of each other.

The molecule `O=C(Cc1cc(Cl)cc(Nc2ccc(C(F)(F)F)cn2)c1)Nc1cncc2ccccc12` came in with a half-maximal inhibitory concentration (IC50) of 3.96 µM.

`O=C(Cn1nnc2ccccc21)N(Cc1cccc(Cl)c1)c1ccc(N2CCCCC2)cc1`: the IC50 is 3.65 µM.

Molecule `Cc1ccncc1NC(=O)N(C)c1cccc(Cl)c1` came in with an IC50 of more than 99.5 µM.

Consider `O=C1NC2(COc3ccc(Cl)cc32)C(=O)N1c1cncc2ccc(F)cc12` (centres undefined), for which the IC50 was 1.38 µM. This lies in the single-digit micromolar range.

`O=C(Cc1cc(Cl)cc(-c2nnc[nH]2)c1)Nc1cncc2ccccc12`: the IC50 was determined as 5.3 µM.

On to `COC(=O)[C@H]1C[C@H](NC(=O)C(c2cccnc2)N(C(=O)c2cocn2)c2ccc(C(C)(C)C)cc2)CN1C(=O)OC(C)(C)C` (stereo in doubt), for which the IC50 amounted to 0.837 µM.

`CC(C)(C)c1ccc(N(C(=O)c2[nH]nc(O)c2CCO)C(C(=O)NCCc2cccc(F)c2)c2cccnc2)cc1` (centres undefined) registered a half-inhibitory concentration (IC50) of more than 99.5 µM.

As for `O=C(CC1(C(=O)Nc2cncc3ccccc23)CCOc2ccc(Cl)cc21)N1CCN(CC(F)(F)CO)CC1` (centres undefined), the IC50 was 7.28 µM.

For `Cc1ccncc1NC(=O)Cc1cc(Cl)cc(NC2CCC(F)(F)C2O)c1` (centres undefined), the IC50 was 23 µM.

In turn, `O=C(Cc1cccc(Cl)c1)Nc1n[nH]c2ccc(F)cc12` displayed an IC50 of more than 99.5 µM.

Molecule `Cc1ccncc1NC(=O)CCc1cccc(Cl)c1` showed a concentration for half-maximal inhibition (IC50) of more than 99.5 µM.

Consider `CC1(C)Nc2ccccc2C1NC(=O)Cc1cccc(Cl)c1` (centres undefined), for which the 50% inhibitory concentration (IC50) was more than 99.5 µM.

In the case of `Cc1ccc(-n2ncc3c(=O)n(CC(N)=O)cnc32)cc1C`, the 50% inhibitory concentration (IC50) is more than 99.5 µM.

The molecule `O=C(NNc1cc(O)nc2ncccc12)c1ccnc2ccccc12` returned an IC50 of more than 99.5 µM.

In the case of `CC(C)(C)c1ccc(N(C(=O)c2cscn2)C(C(=O)NCCc2cccc(F)c2)c2cccnc2)cc1` (centres undefined), the half-maximal inhibitory concentration (IC50) was 0.891 µM.

For `Cn1cc(CN2Cc3ccc(Cl)cc3C(C(=O)Nc3cncc4ccc(F)cc34)C2)nn1` (centres undefined), the IC50 turned out to be 0.914 µM.

Consider `C/C=C/C=C/C(=O)N1CC=C(c2c[nH]c3ncccc23)CC1`, for which the concentration for half-maximal inhibition (IC50) is more than 99.5 µM.

`O=C(Cc1cc(Cl)cc(Nc2ccnc(Br)c2)c1)Nc1cncc2ccccc12` registered an IC50 of 2.74 µM.

The molecule `CN(Cc1ccccc1Nc1cc(Cl)cc(CC(=O)Nc2cncc3ccccc23)c1)C1CCCCC1` yielded a 50% inhibitory concentration (IC50) of 2.22 µM.

`O=C(Cc1cccc(Cl)c1)Nc1cncn1-c1ccccc1` registered a concentration for half-maximal inhibition (IC50) of more than 99.5 µM.

`CNC(=O)CN1CC2(CCN(c3cncc4ccccc34)C2=O)c2cc(Cl)ccc2S1(=O)=O` (centres undefined) showed a 50% inhibitory concentration (IC50) of 0.275 µM.

`CS(=O)(=O)c1ccc2c(NC(=O)C3CCS(=O)(=O)c4ccc(Cl)cc43)cncc2c1` (centres undefined) yielded an IC50 of 0.744 µM. This IC50 lies about 2.7-fold higher than the previous one.

Molecule `O=C(Cc1cc(Cl)cc(Nc2ccc3c(c2)OC(F)(F)O3)c1)Nc1cncc2ccccc12` came in with a half-inhibitory concentration (IC50) of 2.07 µM.

Consider `O=C(Cc1cc(Cl)cc(NCc2ccc(Br)cc2F)c1)Nc1cncc2ccccc12`, for which the half-inhibitory concentration (IC50) turned out to be 3.49 µM.

For the molecule `Cc1ccncc1NC(=O)Cc1cc(Cl)cc(NC2CC2C(F)(F)F)c1` (centres undefined), the half-inhibitory concentration (IC50) came to 25.3 µM.

In turn, `O=C1N(Cc2cccc(Cl)c2)CCN1c1nccc2n[nH]cc12` came in with an IC50 of 4.56 µM.
